Experimental data reported in US8815270B2, “Methods and compositions for treating ectoparasite infestation” (Piedmont Pharmaceuticals, LLC, priority 2002, dated 2014).

Test system: adult body louse, Pediculous humanus humanus
Protocol: In this embodiment, the effectiveness of pediculicidal materials in the formulation of Example 1 is examined against the adult body louse, Pediculous humanus humanus. But this procedure can be used to test the effectiveness of a composition against the head louse, fleas, ticks, or any ectoparasite. In the following description, “morbid” means that the louse is unable to move towards heat 1 h after treatment. The parasite is sick but not necessarily dying, and may recover to resume normal behavior within 24 hours. By “moribund” is meant the parasite is unable to move towards heat (and therefore food) 24 hours after treatment and is dying.
Four replicates of 25 lice each, plus five control replicates were examined. A plastic or glass vial, screened at the bottom with 20-mesh was used as the dipping vessel. A plunger, made from a plastic rod, and a circular screen was fitted inside the vial.
25 adult lice of mixed sexes were placed in the bottom of a test container. A screened plunger was inserted to keep the lice from floating to the surface. The pediculicide material to be tested was placed in a 100-ml beaker and the beaker introduced into a waterbath maintained at 32° C. The test container was placed into the pediculicide in the 100-ml beaker and the lice kept under the pediculicide for 1, 4 or 10 minutes. The test container was removed at end of the desired dipping period. […]

## CCCCCCCCCCCCCC(=O)OC(C)C [isopropyl myristate, 1-methylethyltetradecanoate]
  lice killed (mortality) after 1 hour: about 82%
  mortality of lice after 24 hours: 100%
